Measurements taken from patent US7855177B1, “Methods and kits for preventing hypoglycemia” (Cebix Inc., priority 2009, dated 2010).

Legend:
[1] = system: C-peptide antibodies; assay: Phase II trial: antibody formation against C-peptide (ELISA); assay type: in vivo, human; settings: baseline and after 3 and 6 months of C-peptide treatment
Excerpt: C-peptide plasma samples, C-peptide antibodies, and markers for atherosclerosis were processed (centrifuged, etc.) and stored frozen until transport to a central lab. HLA typing samples were shipped to a central lab for processing and storage until analysis. All samples there were labelled uniquely, including information about screening number and sample time.
Samples for the assessment of antibody formation were collected at baseline and at visits 2 and 4. An appropriate enzyme-linked immunoabsorbant assay (ELISA) method was developed and assessments carried out.

[2] = system: type 1 diabetes patients with peripheral neuropathy; assay: Phase II trial: clinical laboratory evaluation (hematology, blood chemistry, urinalysis); assay type: in vivo, human; settings: following the study treatment
Excerpt: Hematology: hemoglobin, hematocrit, mean cell volume, leukocytes, platelets, differential count
Blood chemistry: sodium, potassium, C-reactive protein (CRP), alanine transaminase, aspartate transaminase, serum creatinine, albumin
Urinanalysis: protein, blood, nitrite
Before starting the study, the investigator supplied the Sponsor with a list of the normal laboratory ranges and units of measurement for the laboratory variables to be determined during the study at the site. All abnormal laboratory (those out of the normal range) values required comments on the CRF, regardless of the clinical significance: […]

[3] = system: type 1 diabetes patients with peripheral neuropathy; settings: in vivo
Method: The safety measurements comprised collection of AEs, spontaneously reported by the patient or recorded by the investigator at each clinical visit. Review of laboratory investigations, vital signs, and physical examinations was performed at the S/B visit, visit 2, and at end of study (visit 4). ECG was performed at the S/B visit and at visit 4.
An AE was classified as “unexpected event” (i.e., if not specifically listed in the Investigator's Brochure) in terms of nature, severity, or frequency. All AEs, including intercurrent illnesses and increased severity or frequency of sign/symptoms of a concomitant disease was reported and documented as described below. AEs were documented on an “Adverse Event/Serious Adverse Event” page of the CRF and in the patient's medical records. Any AE occurring at any time after the end of the study, considered to be caused by the study medication—and therefore a possible adverse drug reaction—was reported to the sponsor.
The period of observation for AEs extended from the time the patient started on trial medication until end of the study. AEs were divided into the categories “serious” and “non-serious”. This determined the procedure used to report/document the AE.
Regardless of the classification of an AE as serious or non-serious (see above), its severity was assessed as mild, moderate, or severe, according to medical criteria alone:
Descriptive statistics were used for safety variables. For lab parameters summary statistics were presented as change from baseline and between doses. The changes from baseline were calculated and compared with normal ranges. The safety analysis set included all patients who obtained at least one dose of the investigational drug. AEs were coded according to the MedDRA dictionary. The frequencies of AEs are tabulated by body system and included/preferred term.

Structure (SMILES): CC(C)C[C@H](NC(=O)[C@H](C)NC(=O)[C@H](CC(C)C)NC(=O)[C@@H]1CCCN1C(=O)[C@H](CCC(N)=O)NC(=O)[C@H](CC(C)C)NC(=O)[C@H](CO)NC(=O)CNC(=O)[C@H](C)NC(=O)CNC(=O)[C@@H]1CCCN1C(=O)CNC(=O)CNC(=O)CNC(=O)[C@H](CC(C)C)NC(=O)[C@H](CCC(=O)O)NC(=O)[C@@H](NC(=O)[C@H](CCC(N)=O)NC(=O)CNC(=O)[C@@H](NC(=O)[C@H](CCC(N)=O)NC(=O)[C@H](CC(C)C)NC(=O)[C@H](CC(=O)O)NC(=O)[C@H](CCC(=O)O)NC(=O)[C@H](C)NC(=O)[C@@H](N)CCC(=O)O)C(C)C)C(C)C)C(=O)N[C@@H](CCC(=O)O)C(=O)NCC(=O)N[C@@H](CO)C(=O)N[C@@H](CC(C)C)C(=O)N[C@@H](CCC(N)=O)C(=O)O [C-peptide]
- reactivity (antibodies) to C-peptide [1]: no or very weak reactivity
- changes in laboratory variables [2]: no significant changes in any of the variables
- AEs possibly/probably related to the study drug [3]: 8
- Acute HIV infection, number of AEs [3]: 1
- Infections and infestations: Acute HIV infection, treatment emergent AE intensity (number of incidences) [3]: M (1)
- Infections and infestations: Herpes zoster, treatment emergent AE intensity (number of incidences) [3]: M (1)
- Nasopharyngitis, number of AEs [3]: 23
